Data on 30 compounds can be found in US9840510B1, “Pyrazolo[1,5-a]pyrimidinyl carboxamide compounds and their use in the treatment of medical disorders” (Lysosomal Therapeutics Inc., priority 2016, dated 2017).

Converted amounts (≈) assume the structure as drawn.

The term solubility denotes how much of the substance goes into solution per volume. Read a high solubility as much dissolved substance.

The target in one series is T1, glucocerebrosidase (Gcase) (Homo sapiens, UniProt P04062).
T1 sequence (P04062 40-536): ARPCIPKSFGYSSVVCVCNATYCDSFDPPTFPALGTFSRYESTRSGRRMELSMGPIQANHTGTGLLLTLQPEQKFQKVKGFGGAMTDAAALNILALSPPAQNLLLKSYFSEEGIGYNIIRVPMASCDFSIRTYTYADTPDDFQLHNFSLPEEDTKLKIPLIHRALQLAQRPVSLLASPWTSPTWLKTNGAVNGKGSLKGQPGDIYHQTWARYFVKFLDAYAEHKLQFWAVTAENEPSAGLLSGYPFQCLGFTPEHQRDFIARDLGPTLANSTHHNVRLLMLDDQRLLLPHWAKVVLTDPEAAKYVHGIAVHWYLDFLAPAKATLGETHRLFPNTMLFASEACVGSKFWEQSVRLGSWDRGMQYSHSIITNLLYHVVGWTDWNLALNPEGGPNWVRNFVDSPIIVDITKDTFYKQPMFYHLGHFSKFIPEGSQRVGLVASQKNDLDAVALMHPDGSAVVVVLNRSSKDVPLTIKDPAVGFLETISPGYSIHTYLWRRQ
Put plainly: Glucocerebrosidase (Gcase) activation assay, 4-methylumbelliferyl-beta-D-glucopyranoside substrate, fluorescence endpoint. The class given is biochemical. As to conditions: test compound at 0.1 μM. Here is the method:
The ability of exemplary compounds to activate glucocerebrosidase (Gcase) was measured.
A 484 μL aliquot of a 1.0 mg/mL solution of phosphatidylserine (PS) (Sigma P7769) in chloroform was evaporated under a stream of nitrogen for 1 hour. The lipid film was dissolved over 4 minutes of vigorous vortexing in 40 mL of 176 mM K2HPO4/50 mM citric acid (pH 4.7) containing 7.5 μL of triton X-100, resulting in a mixed micellar preparation with a composition of 0.32 mM triton and 0.37 mol % PS. 4-Methylumbelliferyl-beta-D-glucopyranoside (ACROS-337025000) was dissolved in the micellar solution to a final concentration of 2 mM for use as the reaction substrate.
Test compounds were diluted to the desired concentrations with dimethylsulfoxide (DMSO) from 10 mM stocks, and 0.41 μL of the DMSO compound mixture was added to 100 μL of micellar solution containing 10 nM GCase and 100 nM saposin C (Enzo ALX-201-262-C050). Pre-incubation was allowed to occur for 30 minutes at room temperature, after which the reaction was initiated by combining 25 μL of substrate solution with 25 μL of compound/GCase/saposin mixture. The reaction proceeded for 15 minutes at room temperature and was stopped by adding 150 μL of 1M glycine, pH 12.5. The endpoint of the reaction was monitored by measuring fluorescence intensity (excitation: 365 nm; emission: 440 nm) on a SpectraMax i3 instrument (Molecular Devices). Test compounds were screened at 1.0 and 0.1 μM final concentration, and subsequent 8-point dose response curves were obtained using 3-fold dilutions from a maximum final concentration of 5 μM.
For `COc1cccc(-c2cc(C)n3ncc(C(=O)NC(C4CC4)C(F)(F)F)c3n2)c1` (stereo not drawn) [III-105], the “Percent Gcase Activation, 0.1 μM Test Compound” value is recorded as “*** (greater than 20% Gcase activation)”.
With `Cc1cc(-c2ccc(Cl)cn2)nc2c(C(=O)N[C@@H](C3CC3)C(F)(F)F)cnn12` [III-118], the “Percent Gcase Activation, 0.1 μM Test Compound” value is reported as “*** (greater than 20% Gcase activation)”.
For `Cc1cc(-c2cccc(F)n2)nc2c(C(=O)NC(C)C3CC3)cnn12` (stereo not drawn) [III-130], the “Percent Gcase Activation, 0.1 μM Test Compound” value is “*** (greater than 20% Gcase activation)”.

Staying with this series, now noted: test compound at 1.0 μM.
In the case of `COc1cccc(-c2cc(C)n3ncc(C(=O)NC(C4CC4)C(F)(F)F)c3n2)c1` (stereo not drawn) [III-105], the “Percent Gcase Activation, 1 μM Test Compound” value is listed as “+++ (Gcase activation greater than 60%)”.
As to `Cc1cc(-c2ccc(Cl)cn2)nc2c(C(=O)N[C@@H](C3CC3)C(F)(F)F)cnn12` [III-118], the “Percent Gcase Activation, 1 μM Test Compound” value is given as “+++ (Gcase activation greater than 60%)”.
As to `Cc1cc(-c2cccc(F)n2)nc2c(C(=O)NC(C)C3CC3)cnn12` (stereo not drawn) [III-130], the “Percent Gcase Activation, 1 μM Test Compound” value is “+++ (Gcase activation greater than 60%)”.

Test system in the next series: not listed separately
Description: Compound solubility in water. It is filed as physicochemical.
Settings: not given
For the compound `COc1cccc(-c2cc(C)n3ncc(C(=O)NC(C4CC4)C(F)(F)F)c3n2)c1` (stereo not drawn) [III-105], the solubility was 0.08 µg/mL (≈ 0.198 µM).
`Cc1cc(-c2ccc(Cl)cn2)nc2c(C(=O)N[C@@H](C3CC3)C(F)(F)F)cnn12` [III-118] came in with a solubility of 0.4 µg/mL (≈ 0.976 µM).
On to `Cc1cc(-c2cccc(F)n2)nc2c(C(=O)NC(C)C3CC3)cnn12` (stereo not drawn) [III-130], for which the solubility was found to be 0.2 µg/mL (≈ 0.589 µM). This solubility lies about 2-fold lower than the previous one.
As to `Cc1cc(-c2ccc(C#N)nc2)nc2c(C(=O)N[C@H](C3CC3)C(F)(F)F)cnn12` [III-367], the solubility is 0.4 µg/mL (≈ 0.999 µM).
Consider `Cc1ccc(-c2cc(C)n3ncc(C(=O)N[C@H](C4CC4)C(F)(F)F)c3n2)c(F)n1` [III-372], for which the solubility was 1.7 µg/mL (≈ 4.17 µM).
On to `Cc1cnc(F)c(-c2cc(C)n3ncc(C(=O)N[C@H](C4CC4)C(F)(F)F)c3n2)c1` [III-374], for which the solubility came out at 1.1 µg/mL (≈ 2.7 µM).
`Cc1ncc(-c2cc(C)n3ncc(C(=O)N[C@H](C4CC4)C(F)(F)F)c3n2)cc1F` [III-380] displayed a solubility of 0.3 µg/mL (≈ 0.736 µM).
For `C#Cc1cncc(-c2cc(C)n3ncc(C(=O)N[C@@H](C4CC4)C(F)(F)F)c3n2)c1` [III-383], the solubility is 0.2 µg/mL (≈ 0.501 µM).
In the case of `COCOc1cccc(-c2cc(C)n3ncc(C(=O)N[C@@H](C4CC4)C(F)(F)F)c3n2)n1` [III-384], the solubility turned out to be 0.1 µg/mL (≈ 0.23 µM).
`Cc1cc(-c2nnc(C(C)C)o2)nc2c(C(=O)N[C@H](C3CC3)C(F)(F)F)cnn12` [III-391] displayed a solubility of 0.3 µg/mL (≈ 0.735 µM).
Still for that read-out and setting: with `Cc1cc(-c2nnc(C(C)C)o2)nc2c(C(=O)N[C@@H](C3CC3)C(F)(F)F)cnn12` [III-392] the figure was 0.4 µg/mL (≈ 0.979 µM); with `Cc1cc(-c2noc(C(C)C)n2)nc2c(C(=O)N[C@@H](C3CC3)C(F)(F)F)cnn12` [III-394], 0.7 µg/mL (≈ 1.71 µM).
Compound `Cc1cc(-c2cc(F)ccc2C#N)nc2c(C(=O)N[C@@H](C)C3CC3)cnn12` [III-396] returned a solubility of 0.3 µg/mL (≈ 0.826 µM).
The compound `Cc1cc(-c2cccc(F)c2C#N)nc2c(C(=O)N[C@@H](C)C3CC3)cnn12` [III-398] showed a solubility of 0.2 µg/mL (≈ 0.55 µM).
As for `Cc1cc(-c2cccc(F)c2C#N)nc2c(C(=O)N[C@@H](C)C(F)(F)F)cnn12` [III-399], the concentration in solution (solubility) was 0.1 µg/mL (≈ 0.256 µM).
`CO[C@H]1CC[C@H]([C@@H](C)NC(=O)c2cnn3c(C)cc(C)nc23)CC1` [III-403] displayed a solubility of 21.4 µg/mL (≈ 64.8 µM).
Regarding `CO[C@H]1CC[C@@H]([C@@H](C)NC(=O)c2cnn3c(C)cc(C)nc23)CC1` [III-404], the solubility amounted to 15.1 µg/mL (≈ 45.7 µM). The solubility values of the last two compounds are within 1.5-fold of each other.
Compound `COc1cccc(-c2cc(C)n3ncc(C(=O)NC(C)(C)C(F)(F)F)c3n2)c1` [III-405] returned a solubility of 1.5 µg/mL (≈ 3.82 µM).
Regarding `Cc1cc(-c2cccc(Cl)c2)nc2c(C(=O)NC(C)(C)C(F)(F)F)cnn12` [III-406], the concentration in solution (solubility) came to 0.8 µg/mL (≈ 2.02 µM).
On to `CCc1cc(-c2ccccn2)nc2c(C(=O)NC(C)(C)C(F)(F)F)cnn12` [III-407], for which the concentration in solution (solubility) was 0.09 µg/mL (≈ 0.238 µM).
For the compound `Cc1cc(-c2ccccn2)nc2c(C(=O)NC(C)(C)C(F)(F)F)cnn12` [III-408], the concentration in solution (solubility) was 0.4 µg/mL (≈ 1.1 µM).
`COc1ccc(F)c(-c2cc(C)n3ncc(C(=O)NC(C)C(F)(F)F)c3n2)c1` (stereo not drawn) [III-409]: the solubility is 0.9 µg/mL (≈ 2.27 µM). This solubility lies about 2.2-fold higher than the previous one.
The compound `COc1cc(F)cc(-c2cc(C)n3ncc(C(=O)NC(C)C(F)(F)F)c3n2)c1` (stereo not drawn) [III-410] registered a solubility of 0.06 µg/mL (≈ 0.151 µM).
Still for that read-out and setting: with `Cc1cc(-c2ccns2)nc2c(C(=O)NC(C3CC3)C(F)(F)F)cnn12` (stereo not drawn) [III-411] the figure was 0.7 µg/mL (≈ 1.84 µM).
Compound `C#CC(C)(C)NC(=O)c1cnn2c(C)cc(-c3ccns3)nc12` [III-412] showed a solubility of 3.7 µg/mL (≈ 11.4 µM).
Compound `Cc1cc(-c2cccc(C(=O)N(C)C)c2)nc2c(C(=O)NC(C3CC3)C(F)(F)F)cnn12` (stereo not drawn) [III-413] had a solubility of 6 µg/mL (≈ 13.5 µM). Compared with the last compound, the solubility is about 1.6-fold higher.
`CNC(=O)c1cccc(-c2cc(C)n3ncc(C(=O)NC(C4CC4)C(F)(F)F)c3n2)c1` (stereo not drawn) [III-414] had a solubility of 1.6 µg/mL (≈ 3.71 µM). This solubility lies about 3.8-fold lower than the previous one.
The compound `Cc1cc(-c2cccc(-n3cccn3)c2)nc2c(C(=O)NC(C3CC3)C(F)(F)F)cnn12` (stereo not drawn) [III-415] gave a solubility of 1.2 µg/mL (≈ 2.72 µM).
`Cc1cc(-c2cccc(-c3ncco3)c2)nc2c(C(=O)NC(C3CC3)C(F)(F)F)cnn12` (stereo not drawn) [III-416] returned a solubility of 0.3 µg/mL (≈ 0.68 µM).
On the same count and under the same terms, to `Cc1cc(-c2cccc(-c3ncccn3)c2)nc2c(C(=O)NC(C3CC3)C(F)(F)F)cnn12` (stereo not drawn) [III-417] belongs 0.04 µg/mL (≈ 0.0884 µM).
